Data from patent publication US9895330B2, “IDO inhibitors” (BRISTOL-MYERS SQUIBB COMPANY, priority 2013, dated 2018).

Legend:
Human IDO1 = biological target: T1, Human IDO1 (Homo sapiens, UniProt P14902); experiment: IDO Kynurenine Assay with Human IDO1/HEK293 Cells; assay type: cell-based; settings: 20 hours incubation, kynurenine absorbance at 490 nm, read-out: HEK human IDO-1 (IC50)
T1 construct: expressed in transfected cells; host or cells: HEK293
Description: IDO Kynurenine Assay with Human IDO1/HEK293 Cells
Human IDO1/HEK293 cells were seeded at 10,000 cells per 50 uL per well with RPMI/phenol red free media contains 10% FBS in a 384-well black wall clear bottom tissue culture plate (Matrix Technologies LLC) 125 nL of certain concentration of compound was then added to each well using ECHO liquid handling systems. The cells were incubated for 20 hours in 37° C. incubator with 5% CO2.
(§1) The compound treatments were stopped by adding Trichloroacetic Acid (Sigma-Aldrich) to a final concentration at 0.2%. The cell plate was further incubated at 50° C. for 30 minute. The equal volume supernatant (20 uL) and 0.2% (w/v) Ehrlich reagent (4-dimethylaminobenzaldehyde, Sigma-Aldrich) in glacial acetic acid were mixed in a new clear bottom 384-well plate. This plate was then incubated at room temperature for 30 minute. The absorbance at 490 nm was measured on Envision plate reader.
Compound IC50 values were calculated using the counts of 500 nM of a reference standard treatment as one hundred percent inhibition, and counts of no compound but DMSO treatment as zero percent inhibition.

[1] = biological target: T2, IDO (IFNγ-treated Hela cells) (Homo sapiens, UniProt P14902); experiment: IDO Kynurenine Assay with Hela Cells; assay type: cell-based; settings: IFNγ 10 ng/ml, 20 hours incubation, kynurenine absorbance at 490 nm, read-out: Hela Cells LLE_IDO_ABS_DR (IC50)
T2 construct: endogenous in cells; host or cells: Hela cells treated with IFNγ (10 ng/ml)
Description: IDO Kynurenine Assay with Hela Cells
Hela cells were seeded at 30,000 cells per well in 40 ul RPMI/phenol red free media contains 10% FBS in a 384-well black wall clear bottom tissue culture plate (Matrix Technologies LLC). 270 nl of certain concentration of compound was then added to each well using ECHO liquid handling systems. 40 ul of IFNγ (R&D, 285-IF-100) at final concentration of 10 ng/ml was then added to column 2-24 with media to column 1 as control. The cells were incubated for 20 hours in 37° C. incubator with 5% CO2.
as §1, with “trichloroacetic acid” for “Trichloroacetic Acid”
Compound IC50 values were calculated using the counts of no IFNγ control as one hundred percent inhibition, and counts of no compound but DMSO treatment as zero percent inhibition.

T1 sequence (P14902 whole entry): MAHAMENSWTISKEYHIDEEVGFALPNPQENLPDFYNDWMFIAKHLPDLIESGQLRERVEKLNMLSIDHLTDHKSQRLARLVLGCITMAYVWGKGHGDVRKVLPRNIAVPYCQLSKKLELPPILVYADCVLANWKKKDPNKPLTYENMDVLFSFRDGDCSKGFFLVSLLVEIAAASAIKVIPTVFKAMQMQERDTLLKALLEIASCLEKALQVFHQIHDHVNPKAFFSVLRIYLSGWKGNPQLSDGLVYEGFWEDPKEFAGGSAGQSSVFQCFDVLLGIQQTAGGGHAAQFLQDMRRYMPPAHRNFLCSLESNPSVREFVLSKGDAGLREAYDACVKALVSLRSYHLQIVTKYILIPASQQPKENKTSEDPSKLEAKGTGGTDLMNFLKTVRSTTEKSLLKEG
T2 sequence (P14902 whole entry): as above

IC50 (Human IDO1)	IC50 [1]	SMILES
110 nM	100 nM	O=C(Cc1ccccc1C(F)(F)F)Nc1cc(-c2ccccc2-c2nnn[nH]2)ccc1N1CC2CC1CN2Cc1ccccc1 (stereo not drawn) [Example 81]
140 nM		Cc1cc(CC(=O)Nc2cc(-c3cc(F)ccc3C(=O)O)c(F)cc2N(CC(C)C)C2CCCCC2)on1 [Example 87]

Second part, the compound before the results:

SMILES	IC50 (Human IDO1)	IC50 [1]
CC(C)CN(CC(C)C)c1ccc(-c2ccccc2-c2nnn[nH]2)cc1NC(=O)Cc1ccc(F)cc1 [Example 12, N-(4-(diisobutylamino)-2′-(1H-tetrazol-5-yl)biphenyl-3-yl)-2-(4-fluorophenyl)acetamide]	2.99 nM	10 nM
Cc1ccc(CC(=O)Nc2cc(-c3ccccc3-c3nnn[nH]3)ccc2N(Cc2ccccc2)CC(C)C)cc1 [Example 74]	10 nM	3.06 nM
Cc1ccc(CC(=O)Nc2cc(-c3ccccc3-c3nnn[nH]3)ccc2N2CC3CC2CN3Cc2ccccc2)cc1 (stereo not drawn) [Example 80]	5.13 nM	8.44 nM
